# Tests used:
# [1] = tested on: normal human knee joint chondrocytes (NHAc-kn); experiment: Elastin production test in normal human knee joint chondrocytes (dot blot); format: cell-based
# Description: Normal human knee joint chondrocytes (NHAc-kn: 1.0×10^5 cells/mL) were seeded in a 24-well plate (900 μL/well, medium: CBM+0.5% FBS) and incubated under humidification condition at 37° C. in 5% CO2 atmosphere for 48 hours. The medium was exchanged and peptide VPGG and peptide VP was added (100 μL/well, final concentration: 0 to 5000 nM) and incubated under humidification condition at 37° C. in 5% CO2 atmosphere for 48 hours. From the cell culture thus obtained, supernatant was collected and dot-blotted onto a PVDF membrane. After blocking with PBST containing 5% skim milk, the membrane was washed with PBST. The membrane was reacted with rabbit anti-elastin antibody as a primary antibody, washed with PBST and reacted with HRP conjugate goat […] as a secondary antibody and washed with PBST. The membrane was reacted with a detection reagent ImmunoStar (FUJIFILM Wako Pure Chemical Corporation) and the amount of elastin production was estimated based on intensities of signals obtained.
# [2] = tested on: human skin fibroblast cells; details: known from the literature (positive control); cited from earlier work
# [3] = tested on: normal human skin fibroblast cells; experiment: Proliferation test of normal human skin fibroblast cells; format: cell-based; details: similar experiment with the hydrolysate
# Description: Skin fibroblast cells cultured in a culture flask was seeded in a 96-well plate at 3,500 cells/cm^2 ([…], medium: 10% FBS DMEM). After incubating for 24 hours at 37° C. under 5% CO2 condition, the liquid medium in the wells was removed, replaced with DMEM containing 0.5% FBS and incubated for 24 hours under similar conditions. The liquid medium in the wells was removed and the wells were washed with DPBS, after which DPBS was removed. Solutions of predetermined concentrations of peptide Val-Pro-Gly-Gly (VPGG) and peptide Val-Pro-Gly-Ala (VPGA) were prepared using DMEM containing 0.5% FBS were prepared and 100 μL of the solution was added to each well. Fibroblast cells were incubated for 4 days at 37° C. under 5% CO2 condition and supernatant was recovered. The supernatant recovered was used for a measurement of amount of elastin production in Example 2. DMEM containing 0.5% FBS was added and cells were counted using cell counting kit-8 (10 μL/well) and a cell proliferation rate relative to the cell number obtained from the sample without adding the peptides.
# [4] = tested on: human skin fibroblast cells; experiment: Migration activity test of normal human skin fibroblast cells; format: cell-based; details: 20 hours, membrane inserts pore size 8 μm, absorbance at 560 nm
# Description: Effect of peptide Val-Pro-Gly-Gly on a migration activity of fibroblast cells that relates to processes of recovery and regeneration of tissue and wound healing was investigated. To bottom of each well of 24-well plate of CytoSelect (registered trade mark) 24-well Cell Migration Assay Kit (Cell Biotics), DMEM medium (control), 500 μL of peptide Val-Pro-Gly-Gly or peptide Val-Pro-Gly (positive control: see “Elastin—Structure, Function and Pathology”, edited and written by Hiroyuki Ito, Elastin Study Group of Japan (not for sale), p. 124-137, 2008) dissolved in DMEM medium were added. Then, 300 μL of cell suspension of human skin fibroblast cells (P4 to 5) prepared by dispersing the cell in DMEM media (1×10^6 cells/mL) was added inside membrane inserts (pore size: 8 μm). The inserts were inserted in wells and incubated in a cell incubator at 37° C. for 20 hours (in preliminary examination, duration of incubation was also set to 6 hours). […] Cells were stained by adding 400 μL of cell stain liquid and staining for 10 minutes at room temperature. Then the inserts were washed with distilled water, dried and stain was confirmed by optical microscopic observation. […] of reaction mixture was placed in 96-well plate and absorbance at 560 nm was measured using a plate reader.
substance,measurement,setting,value
Val-Pro,effect on the elastin production in the chondrocytes,[1],promoting effect
Val-Pro-Gly,effect for promoting cell migration,[2],known to have the effect for promoting cell migration
Val-Pro-Gly-Ala (VPGA; printed: Val-Pro-Gly-Ala),cell proliferation rate compared with hydrolysate of elastin from bonitos bulbus arteriosus,[3],higher cell proliferation rate
Val-Pro-Gly-Gly (VPGG; printed: Val-Pro-Gly-Gly),effect for promoting cell migration compared with peptide Val-Pro-Gly (positive control),[4],significantly higher effect for promoting cell migration
same,cell proliferation rate compared with hydrolysate of elastin from bonitos bulbus arteriosus,[3],higher cell proliferation rate

# Source: patent US20190111103A1, “NOVEL PEPTIDE OR SALT THEREOF, COMPOSITION FOR ENHANCING PROLIFERATION OF FIBROBLAST CELLS AND COMPOSITION FOR ENHANCING ELASTIN PRODUCTION IN FIBROBLAST CELLS AND CHONDROCYTES CONTAINING THE SAME” (Hayashikane Sangyo Co., Ltd., priority 2017, published 2019)
